Among the data in patent US20130041005A1, “PHARMACEUTICAL COMPOSITIONS COMPRISING NEUROPILIN INHIBITORS, AND THEIR USE FOR THE PREVENTION AND/OR TREATMENT OF ANGIOGENIC DISORDERS AND CANCERS” (TRAGEX PHARMA, priority 2011, published 2013) are IC50 and inhibition values, retold here.

As usually defined, the IC50 is the midpoint of a concentration-inhibition curve. Usually inhibition stands for the percentage by which the read-out fell short of the control. A lower inhibition goes with a response near the control.

What all share (format): cell-based
The subject of test [1] is HCT-116. Kind of test: WST-1 proliferation assay, HCT-116. Conditions: Homo sapiens; for IC50: Colon HCT-116, 72 h, read-out: Anti-proliferative activity IC50 (μM) ± SD; for inhibition at 0.1 µM: HCT-116, 0.1 μM; for inhibition at 0.5 µM: HCT-116, 0.5 μM; for inhibition at 1 µM: HCT-116, 1 μM. An excerpt:
Several cancer cell lines were used: breast cancer cells (MDA-MB-231 (ATTCC® Number HTB-26™), MDA-MB-436 (ATTCC® Number HTB-130™), MDA-MB-438, BT-474 (ATTCC® Number HTB-20™)); cervical cancer cells (HeLa (ATTCC® Number CCL-2™)); colon cancer cells (HCT-116 (ATTCC® Number CCL-247™) and HT-29 (ATTCC® Number HTB-38™)); osteosarcoma cells (U2OS (ATTCC® Number HTB-96™)); pancreas cancer cells (MIA PaCa-2 (ATTCC® Number CRL-1420™) and Panc-10.5 (ATTCC® Number CRL-2547™)); prostate cancer cells (PC-3 (ATTCC® Number CRL-1435™) and LNCaP (ATTCC® Number CRL-1740™)); brain cancer cells (U87 glioblastoma (ATTCC® Number HTB-14™) and SH-SYSY neuroblastoma (ATTCC® Number CRL-2266™)).
(§1) All the cancer cell lines were maintained in cultured in DMEM GlutaMAX™ (GIBCO Invitrogen, France, cat no 31966047) enhanced with 10% foetal bovine serum (GIBCO Invitrogen, France, cat no 10270-106) and 1% penicillin G/streptomycin (GIBCO Invitrogen, France, cat no 15140-122). Only Panc-10.5 cells were cultivated in RPMI 1640 medium (Gibco) supplemented with 2 mM L-glutamine, 1.5 g/L sodium bicarbonate, 4.5 g/L glucose, 10 mM HEPES, 1 mM sodium pyruvate, 10 Units/ml human insulin, […] (SVF): 15% (75 ml in 500 ml of medium).
Cells were grown as subconfluent monolayer and cultured in 75 cm^2 flasks at 37° C., 5% CO2 in a humidified atmosphere, and medium was changed every two days. Only cells from passages 2-6 were used for the experiments.
After observation of cells under the microscope, old media were removed and the adherent cells washed gently twice with PBS (Phosphate Buffer Saline, —Ca^2+, —Mg^2+, Lonza cat no: 17-512F/12). All cells were detached with 3 ml of trypsin/EDTA (chelator of calcium and magnesium ions) (Lonza), incubated for 5 min at 37° C., and examined using a microscope to ensure that the cells were detached and floating. Then, 3 ml TNS (Trypsin Neutralizing Solution, Lonza, France, cat no CC-5002) or of culture medium were added to inactivate the trypsin, and the cell suspension was transferred in a falcon and centrifuged for 7 min at 1400 rpm. The supernatant was removed and the cell pellet resuspended in […] of culture medium. 50 μl of this solution were transferred in 20 μl of isotonic solution and the cells were counted by count cellular (Beckman Coulter). At day 0, 200 μl of cellular suspension (3.10^3 cells/well for the HUVEC cells, breast cancer cells (MDA-MB-231 1.10^4 cells/well, MDA-MB-436 1.10^4 cells/well, MDA-MB-438 2.10^4 cells/well, BT-474 2.5.10^4 cells/well); cervical cancer cells (HeLa 5.000 cells/well); colon cancer cells (HCT-116 5.10^3 cells/well, HCT-29 1.1.10^4 cells/well); osteosarcoma cells (U2OS 8.10^3 cells/well); pancreas cancer cells (MIA PaCa-2 5.10^3 cells/well, Panc-10.5 1.5.10^4 cells/well); prostate cancer cells (PC-3 4.10^3 cells/well, LNCaP 2.10^4 cells/well); brain cancer cells (U87 5.10^3 cells/well, SH-SYSY 8.10^4 cells/well)) were then plated on 96 well plates and incubated at 37° C. in a humidified atmosphere of 5% CO2 for 24 h.
At day 1, the compounds 1 or 2 of the invention were added at increasing concentrations (0.1-10 μM) in the wells and plates were incubated at 37° C. in a humidified atmosphere of 5% CO2 for 72 h.
The cell proliferation WST-1 assay is a colorimetric assay for the quantification of cell proliferation and viability, based on the enzymatic cleavage of the tetrazolium salt WST-1 added to the culture medium, to a water soluble colored formazan dye, detected by absorbance at 450 nm, by mitochondrial succinate-tetrazolium reductase in viable cells. An augmentation in enzyme activity will then lead to an increase in the amount of formazan dye formed, which directly correlates to the number of metabolically active cells in the culture.
After an incubation period of 72 h, at day 4, were prepared the 19 ml medium with reagent WST-1 1 ml ([…]). The medium was removed from the 96 microplate and 200 μl of solution WST-1/medium were added for each well. […]
A general note: Tetrazolium assays rely on reduction of a dye to a coloured formazan, in cell work by metabolically active cells.

The test system of test [2] is A549. In words: WST-1 proliferation assay, A549. The conditions noted are these: Homo sapiens; Lung A549; read-out: Anti-proliferative activity IC50 (μM) ± SD. On the procedure: as §1
Cells were grown as subconfluent monolayer and cultured in 75 cm^2 flasks at 37° C., 5% CO2 in a humidified atmosphere, and medium was changed every two days. […]
The cell proliferation WST-1 assay is a colorimetric assay for the quantification of cell proliferation and viability, based on the enzymatic cleavage of the tetrazolium salt WST-1 added to the culture medium, to a water soluble colored formazan dye, detected by absorbance at 450 nm, by mitochondrial succinate-tetrazolium reductase in viable cells. […]
After an incubation period of 72 h, at day 4, were prepared the 19 ml medium with reagent WST-1 1 ml ([…]). […] The cells were incubated at 37° C. in a humidified atmosphere of 5% CO2 for 1 h 30 and the absorbance at 450-655 nm was measured by Microplate Manager 5.2 (Bio-Rad).

The subject of test [3] is Panc-10.5. Kind of test: WST-1 proliferation assay, Panc-10.5. Conditions: Homo sapiens; PANC - 10.5, 0.05 μM.

On to `Cc1ccc(-c2nc3ccccc3[nH]2)cc1NC(=S)NC(=O)c1ccc2c(c1)OCCO2` [Compound 1, N-[5-(1H-benzimidazol-2-yl)-2-methylphenyl]-N′-(2,3-dihydro-1,4-benzodioxin-6-ylcarbonyl)thiourea], for which, in test [1], the IC50 is 1 µM, the inhibition at 0.1 µM worked out at 7%, the inhibition at 0.5 µM was 51% and the inhibition at 1 µM came to 56%. The IC50 in test [2] turned out to be 0.4 ± 0.04 µM. Moreover, in test [3], testing at 0.05 µM gave an inhibition of 18%.
Turning to `O=C(NC(=S)Nc1cccc(-c2nc3ccccc3[nH]2)c1)c1ccc2c(c1)OCCO2` [Compound 2, N-[3-(1H-benzimidazol-2-yl)phenyl]-N′-(2,3-dihydro-1,4-benzodioxin-6-ylcarbonyl)thiourea], in test [1], the IC50 was determined as 1 µM, the inhibition at 0.1 µM is 49%, the inhibition at 0.5 µM stood at 58% and the inhibition at 1 µM was found to be 60%. Further, in test [2], the IC50 turned out to be 0.1 ± 0.04 µM. In test [3], this compound gave an inhibition at 0.05 µM of 35%.
